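Tested at 5 concentrations; 48 h exposure; 96-well plates; endpoints linearly interpolated, else capped at highest concentration. GI50 = concentration required for 50% inhibition of growth. TGI marks complete inhibition of growth.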
Assays:
Experiment in all cases: NCI-60 cell line screen, 48 h
[1] = system: COLO 205 colon
[2] = system: LOX IMVI melanoma
[3] = system: SN12C renal
[4] = system: SNB-19 CNS
[5] = system: 786-0 renal
[6] = system: MALME-3M melanoma
[7] = system: SK-MEL-2 melanoma
[8] = system: HT29 colon
[9] = system: DMS 273 small cell lung
[10] = system: DLD-1 colon
[11] = system: SF-539 CNS
[12] = system: HL-60(TB) leukemia
[13] = system: RXF 393 renal
[14] = system: SF-295 CNS
[15] = system: MOLT-4 leukemia
[16] = system: UO-31 renal
[17] = system: KM12 colon
[18] = system: SK-OV-3 ovarian
[19] = system: HCT-15 colon
[20] = system: HOP-62 NSCLC
[21] = system: NCI-H23 lung
[22] = system: CCRF-CEM leukemia
[23] = system: IGROV1 ovarian
[24] = system: HOP-18 NSCLC
[25] = system: SNB-75 CNS
[26] = system: M19-MEL melanoma
[27] = system: HCT-116 colon
[28] = system: A549 NSCLC
[29] = system: SK-MEL-28 melanoma
[30] = system: OVCAR-8 ovarian
[31] = system: SK-MEL-5 melanoma
[32] = system: EKVX NSCLC
[33] = system: RPMI-8226 leukemia
[34] = system: KM20L2 colon
[35] = system: TK-10 renal
[36] = system: ACHN renal
[37] = system: NCI-H522 lung
[38] = system: M14 melanoma
[39] = system: NCI-H460 lung
[40] = system: SW-620 colon
[41] = system: DMS 114 small cell lung
[42] = system: K-562 leukemia
[43] = system: UACC-257 melanoma
[44] = system: OVCAR-3 ovarian
[45] = system: U251 CNS
[46] = system: NCI-H226 lung
[47] = system: UACC-62 melanoma
[48] = system: SNB-78 CNS
[49] = system: CAKI-1 renal
[50] = system: SR leukemia
[51] = system: HOP-92 NSCLC
[52] = system: A498 renal
[53] = system: HCC-2998 colon
[54] = system: OVCAR-5 ovarian
[55] = system: SF-268 CNS
[56] = system: LXFL 529 NSCLC
[57] = system: OVCAR-4 ovarian

O=C([O-])c1cc(I)cc(I)c1[OH2+].O=C([O-])c1cc(I)cc(I)c1[OH2+].[Mn+2]
GI50 [1]: > 100 µM
TGI [1]: > 100 µM
GI50 [2]: 46.2 µM
TGI [2]: > 100 µM
GI50 [3]: 18.9 µM
TGI [3]: 42.9 µM
GI50 [4]: 29 µM
TGI [4]: 87.7 µM
GI50 [5]: 51 µM
TGI [5]: > 100 µM
GI50 [6]: 33.9 µM
TGI [6]: > 100 µM
GI50 [7]: 48.5 µM
TGI [7]: > 100 µM
GI50 [8]: 97.8 µM
TGI [8]: > 100 µM
GI50 [9]: 37.7 µM
TGI [9]: > 100 µM
GI50 [10]: > 100 µM
TGI [10]: > 100 µM
GI50 [11]: 24.8 µM
TGI [11]: 60 µM
GI50 [12]: > 100 µM
TGI [12]: > 100 µM
GI50 [13]: 17.8 µM
TGI [13]: 40.2 µM
GI50 [14]: 33.5 µM
TGI [14]: > 100 µM
GI50 [15]: > 100 µM
TGI [15]: > 100 µM
GI50 [16]: 35.6 µM
TGI [16]: > 100 µM
GI50 [17]: 67.3 µM
TGI [17]: > 100 µM
GI50 [18]: 20 µM
TGI [18]: 44.2 µM
GI50 [19]: > 100 µM
TGI [19]: > 100 µM
GI50 [20]: 35.2 µM
TGI [20]: > 100 µM
GI50 [21]: 30.4 µM
TGI [21]: 89.4 µM
GI50 [22]: > 100 µM
TGI [22]: > 100 µM
GI50 [23]: 19.4 µM
TGI [23]: 49.4 µM
GI50 [24]: > 100 µM
TGI [24]: > 100 µM
GI50 [25]: 60.1 µM
TGI [25]: 99.8 µM
GI50 [26]: 81.7 µM
TGI [26]: > 100 µM
GI50 [27]: 36.7 µM
TGI [27]: > 100 µM
GI50 [28]: 56.4 µM
TGI [28]: > 100 µM
GI50 [29]: > 100 µM
TGI [29]: > 100 µM
GI50 [30]: 34.2 µM
TGI [30]: > 100 µM
GI50 [31]: > 100 µM
TGI [31]: > 100 µM
GI50 [32]: 72.3 µM
TGI [32]: > 100 µM
GI50 [33]: > 100 µM
TGI [33]: > 100 µM
GI50 [34]: > 100 µM
TGI [34]: > 100 µM
GI50 [35]: 32.1 µM
TGI [35]: > 100 µM
GI50 [36]: 20.3 µM
TGI [36]: 59 µM
GI50 [37]: 22.2 µM
TGI [37]: 69.2 µM
GI50 [38]: 42.9 µM
TGI [38]: > 100 µM
GI50 [39]: 64 µM
TGI [39]: > 100 µM
GI50 [40]: 53.2 µM
TGI [40]: > 100 µM
GI50 [41]: 32 µM
TGI [41]: > 100 µM
GI50 [42]: > 100 µM
TGI [42]: > 100 µM
GI50 [43]: 18.8 µM
TGI [43]: 43.1 µM
GI50 [44]: 24 µM
TGI [44]: 77.6 µM
GI50 [45]: 21.5 µM
TGI [45]: 61.3 µM
GI50 [46]: 33.7 µM
TGI [46]: 74.1 µM
GI50 [47]: 45.7 µM
TGI [47]: > 100 µM

CC1CCC(=O)NCCCCC(=O)N1 (centres undefined)
TGI [1]: > 100 µM
TGI [2]: > 100 µM
TGI [48]: > 100 µM
TGI [3]: > 100 µM
TGI [4]: > 100 µM
TGI [49]: > 100 µM
TGI [5]: > 100 µM
TGI [6]: > 100 µM
TGI [7]: > 100 µM
TGI [8]: > 100 µM
TGI [9]: > 100 µM
TGI [10]: > 100 µM
TGI [11]: > 100 µM
TGI [12]: > 100 µM
TGI [13]: > 100 µM
TGI [14]: > 100 µM
TGI [15]: > 100 µM
TGI [16]: > 100 µM
TGI [17]: > 100 µM
TGI [18]: > 100 µM
TGI [20]: > 100 µM
TGI [50]: > 100 µM
TGI [21]: > 100 µM
TGI [22]: > 100 µM
TGI [23]: > 100 µM
TGI [25]: > 100 µM
TGI [26]: > 100 µM
TGI [51]: > 100 µM
TGI [52]: > 100 µM
TGI [53]: > 100 µM
TGI [27]: > 100 µM
TGI [28]: > 100 µM
TGI [29]: > 100 µM
TGI [54]: > 100 µM
TGI [30]: > 100 µM
TGI [31]: > 100 µM
TGI [32]: > 100 µM
TGI [33]: > 100 µM
TGI [34]: > 100 µM
TGI [35]: > 100 µM
TGI [55]: > 100 µM
TGI [36]: > 100 µM
TGI [37]: > 100 µM
TGI [38]: > 100 µM
TGI [39]: > 100 µM
TGI [40]: > 100 µM
TGI [41]: > 100 µM
TGI [42]: > 100 µM
TGI [43]: > 100 µM
TGI [56]: > 100 µM
TGI [44]: > 100 µM
TGI [57]: > 100 µM
TGI [45]: > 100 µM
TGI [46]: > 100 µM
TGI [47]: > 100 µM
